Assays:
[1] = test system: MT4; test: Cytotoxicity in MT-4 cells using cytopathicity assay.; format: functional, Homo sapiens
[2] = test system: MT4; test: Tested for its anti-HIV activity in MT-4 cells in the presence of 50% human serum.; format: functional, cell-based
[3] = test system: MT4; test: Tested for its anti-HIV activity in MT-4 cells.; format: functional, cell-based; settings: Homo sapiens
[4] = target: Human immunodeficiency virus type 1 protease (Human immunodeficiency virus 1) (UniProt Q72874); test: Tested for its inhibition against HIV protease at a concentration of 0.5 nM.
[5] = Cmax value after oral dose at a dose of 10 mg/kg in rats.; format: ADME, organism-based; set-up: dose 10 mg/kg, route oral; settings: rat, in vivo
[6] = Oral bioavailability in rat (dose 10 mg/kg p.o.); format: ADME, organism-based; settings: in vivo
[7] = Tmax value after oral dose at a dose of 10 mg/kg in rats.; format: ADME, organism-based; set-up: dose 10 mg/kg, route oral; settings: rat, in vivo
[8] = AUC value after IV dose at a dose of 5 mg/kg in rats.; format: ADME, organism-based; set-up: dose 5 mg/kg, route intravenous; settings: rat, plasma
[9] = AUC value after oral dose at a dose of 10 mg/kg in rats.; format: ADME, organism-based; set-up: dose 10 mg/kg, route oral; settings: rat, plasma
[10] = Half-life value after IV dose at a dose of 5 mg/kg in rats.; format: ADME, organism-based; set-up: dose 5 mg/kg, route intravenous; settings: rat, in vivo
[11] = target: Human immunodeficiency virus type 1 protease (Human immunodeficiency virus 1) (UniProt Q72874); test: Compound was tested for its inhibition against HIV protease at a concentration of 4 nM.

| SMILES | CCIC50 [1] | EC50 [2] | EC50 [3] | inhibition [4] | Cmax [5] | bioavailability [6] | Tmax [7] | AUC [8] | AUC [9] | half-life [10] | inhibition [11] |
| --- | --- | --- | --- | --- | --- | --- | --- | --- | --- | --- | --- |
| CC(C)c1nc(CN(C)C(=O)N[C@H](C(=O)N[C@@H](Cc2ccccc2)C[C@H](O)[C@H](Cc2ccccc2)NC(=O)OCc2cncs2)C(C)C)cs1 [RITONAVIR] | 56 µM | 810 nM | 70 nM | 78% | – | – | – | – | – | – | – |
| O=C(N[C@@H](Cc1ccccc1)C[C@H](O)[C@H](Cc1ccccc1)NC(=O)O[C@H]1COC2OCCC21)Oc1cncs1 (stereo partly drawn) | >100 µM | 290 nM | 140 nM | 53% | 1120 ng/mL | 41.1% | 30 min | 2300 ng·h/mL | 1890 ng·h/mL | 41.4 min | – |
| O=C(N[C@@H](Cc1ccccc1)C[C@H](O)[C@H](Cc1ccccc1)NC(=O)OC1COC2OCCC12)Oc1cncs1 (stereo partly drawn) | >100 µM | 1200 nM | 502 nM | 43% | – | – | – | – | – | – | – |
| O=C(N[C@@H](Cc1ccccc1)[C@@H](O)C[C@H](Cc1ccccc1)NC(=O)OC1COC2OCCC12)Oc1cncs1 (stereo partly drawn) | >100 µM | 774 nM | 428 nM | 52% | – | – | – | – | – | – | – |
| O=C(N[C@@H](Cc1ccccc1)C[C@H](O)[C@H](Cc1ccccc1)NC(=O)OC1COC2OCCC12)OC1COC2OCCC12 (stereo partly drawn) | >100 µM | 77 nM | 71 nM | 53% | – | – | – | – | – | – | – |
| CC(C)(C)OC(=O)N[C@@H](Cc1ccccc1)C[C@H](O)[C@H](Cc1ccccc1)NC(=O)OC1COC2OCCC12 (stereo partly drawn) | 56 µM | 200 nM | 200 nM | 49% | – | – | – | – | – | – | – |
| O=C(N[C@@H](Cc1ccccc1)[C@@H](O)C[C@H](Cc1ccccc1)NC(=O)O[C@@H]1COC2OCCC21)O[C@H]1COC2OCCC21 (stereo partly drawn) | >100 µM | 1920 nM | 891 nM | 39% | – | – | – | – | – | – | – |
| O=C(N[C@@H](Cc1ccccc1)C[C@H](O)[C@H](Cc1ccccc1)NC(=O)O[C@@H]1COC2OCCC21)O[C@@H]1COC2OCCC21 (stereo partly drawn) | >100 µM | 4180 nM | 3680 nM | – | – | – | – | – | – | – | 50% |
| O=C(N[C@@H](Cc1ccccc1)C[C@H](O)[C@H](Cc1ccccc1)NC(=O)O[C@@H]1COC2OCCC21)O[C@H]1COC2OCCC21 (stereo partly drawn) | >100 µM | 197 nM | 107 nM | 73% | – | – | – | – | – | – | – |
| CC(C)(C)OC(=O)N[C@@H](Cc1ccccc1)C[C@H](O)[C@H](Cc1ccccc1)NC(=O)O[C@H]1COC2OCCC21 (stereo partly drawn) | 69 µM | – | 180 nM | 63% | – | – | – | – | – | – | – |
| CC(C)(C)OC(=O)N[C@@H](Cc1ccccc1)C[C@H](O)[C@H](Cc1ccccc1)NC(=O)O[C@@H]1COC2OCCC21 (stereo partly drawn) | >100 µM | 4730 nM | 1040 nM | 45% | – | – | – | – | – | – | – |
| O=C(N[C@@H](Cc1ccccc1)C[C@H](O)[C@H](Cc1ccccc1)NC(=O)O[C@H]1COC2OCCC21)O[C@H]1COC2OCCC21 (stereo partly drawn) | >100 µM | 115 nM | 34 nM | 64% | – | – | – | – | – | – | – |
